Structures can show the parent of a compound that is named as a salt.

In the first test the target is T1, Human Glucocorticoid Receptor (Homo sapiens, UniProt P04150).
T1 construct: endogenous in cells; host or cells: cytosol from IM-9 cell line
T1 sequence (P04150 1-777): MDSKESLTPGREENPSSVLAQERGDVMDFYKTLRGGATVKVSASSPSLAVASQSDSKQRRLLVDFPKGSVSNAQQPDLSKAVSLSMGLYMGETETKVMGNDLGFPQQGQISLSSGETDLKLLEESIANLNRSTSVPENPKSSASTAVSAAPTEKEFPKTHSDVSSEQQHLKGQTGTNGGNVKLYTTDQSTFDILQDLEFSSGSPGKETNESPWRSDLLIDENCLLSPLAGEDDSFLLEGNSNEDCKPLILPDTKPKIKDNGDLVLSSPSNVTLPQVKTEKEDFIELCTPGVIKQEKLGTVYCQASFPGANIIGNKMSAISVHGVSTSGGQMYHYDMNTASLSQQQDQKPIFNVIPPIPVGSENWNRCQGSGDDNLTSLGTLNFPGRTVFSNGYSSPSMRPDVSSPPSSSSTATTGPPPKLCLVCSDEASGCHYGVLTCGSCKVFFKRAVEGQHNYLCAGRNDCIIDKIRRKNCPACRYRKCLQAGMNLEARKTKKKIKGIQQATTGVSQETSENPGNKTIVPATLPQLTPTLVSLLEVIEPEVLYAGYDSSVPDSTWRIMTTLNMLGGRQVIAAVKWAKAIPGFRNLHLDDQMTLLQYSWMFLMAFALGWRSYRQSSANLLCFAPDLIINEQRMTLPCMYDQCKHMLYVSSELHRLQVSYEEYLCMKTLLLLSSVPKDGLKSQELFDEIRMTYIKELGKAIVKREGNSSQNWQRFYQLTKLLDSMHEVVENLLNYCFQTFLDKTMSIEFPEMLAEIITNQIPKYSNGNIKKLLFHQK
The experiment in a line: Competition Binding in IM-9 Human Glucocorticoid Receptor (GR IM-9). The settings on record: cytosol from IM-9 cell line, 1.5 nM [3H]-Dexamethasone, 4° C. for 6 hours. An outline of the steps:
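Radioligand competition using 100 μg IM-9 cell cytosol and 1.5 nM [3H]-dexamethasone, incubated 6 h at 4° C in TES/molybdate buffer, pH 7.4. Filtration on PEI-treated GF/B filters, scintillation counting; nonspecific binding defined with 10 μM triamcinolone.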
Turning to `CC(=O)C1=C(C)NC(C)=C(C(=O)OCC2CCCC2)C1c1csc2ncccc12` (stereo not shown) [Example C35, Cyclopentylmethyl 5-acetyl-2,6-dimethyl-4-(thieno[2,3-b]pyridin-3-yl)-1,4-dihydropyridine-3-carboxylate], the IC50 was < 100 nM.

In a further test the target is T2, Rat Androgen Receptor (Rattus norvegicus, UniProt P15207).
T2 construct: purchased Life Technologies A15880
T2 sequence (P15207 646-902 limits assumed): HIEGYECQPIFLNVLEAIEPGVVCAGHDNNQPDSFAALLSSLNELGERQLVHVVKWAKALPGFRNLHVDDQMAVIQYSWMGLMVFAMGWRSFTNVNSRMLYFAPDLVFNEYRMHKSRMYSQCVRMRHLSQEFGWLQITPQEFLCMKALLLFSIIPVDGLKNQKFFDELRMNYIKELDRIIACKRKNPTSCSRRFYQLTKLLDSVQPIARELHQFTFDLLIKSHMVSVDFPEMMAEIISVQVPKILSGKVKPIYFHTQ
Nature of the test: Rat Androgen Receptor Binding (polarscreen AR competitor assay, fluorescence polarization). Particulars: displacement of Fluormone AL Green, 4 hours at RT, read-out: AR rat-fluorimetric. The method, then:
Pharmacological Activity Rat Androgen Receptor Binding
The assay was carried out following the instructions of polarscreen AR competitor assay green kit (Life Technologies, Cat #.: A15880). Briefly, the test is based on measuring the changes of fluorescence polarization shown by the Fluormone AL Green. Thus, when the Fluormone is bound to the receptor, a fluorescence polarization is observed that diminishes when a ligand competes for the receptor binding site and the Fluormone gets displaced.
The inhibition values for each of the compounds are measured in duplicate at 1 and 10 μM and the plate is incubated for 4 hours at RT. Fluorescence polarization is the measured in a Tecan Infinite M1000 Pro reader (λexc=485 nm, λem=535 nm). In order to obtain a dose-response curve and calculate the potency of inhibition (expressed as IC50) for AR, a series of 1:10 dilutions in test in 1× buffer from 10 μM to 0.1 nM for each compound was carried out.
As for `CC(=O)C1=C(C)NC(C)=C(C(=O)OCC2CCCC2)C1c1csc2ncccc12` (stereo not shown) [Example C35, Cyclopentylmethyl 5-acetyl-2,6-dimethyl-4-(thieno[2,3-b]pyridin-3-yl)-1,4-dihydropyridine-3-carboxylate], the IC50 is 100 to 1000 nM.

For the compound `CC1=C(C#N)C(c2csc3ccccc23)C(C#N)=C(C)N1` [Example E1, 4-(Benzo[b]thiophen-3-yl)-2,6-dimethyl-1,4-dihydropyridine-3,5-dicarbonitrile], the IC50 was < 100 nM.

Regarding `CC(=O)C1=C(C)NC(C)=C(S(C)(=O)=O)C1c1csc2ccccc12` (stereo not shown) [Example J10, 1-(4-(benzo[b]thiophen-3-yl)-2,6-dimethyl-5-(methylsulfonyl)-1,4-dihydro-pyridin-3-yl)ethanone], the IC50 was in the range of 100 to 1000 nM.

Turning to `CC(=O)C1=C(C)NC(C)=C(C(C)=O)C1c1csc2ccc(C(=O)N3CCOCC3)cc12` [Example H12, 1,1′-(2,6-Dimethyl-4-(5-(morpholine-4-carbonyl)benzo[b]thiophen-3-yl)-1,4-dihydropyridine-3,5-diyl)bis(ethan-1-one)], the IC50 was ≥ 1000 nM.

Regarding `COC(=O)C1=C(C)NC(C)=C(C(C)=O)C1c1csc2ccc(C(=O)NC3CC3)cc12` (stereo not shown) [Example J15, Methyl 5-acetyl-4-(5-(cyclopropylcarbamoyl)benzo[b]thiophen-3-yl)-2,6-dimethyl-1,4-dihydropyridine-3-carboxylate], the IC50 was ≥ 1000 nM.

Turning to `COC(=O)C1=C(N)NC(C)=C(C(C)=O)C1c1csc2ccccc12` (stereo not shown) [Example K2, Methyl 5-acetyl-2-amino-4-(benzo[b]thiophen-3-yl)-6-methyl-1,4-dihydropyridine-3-carboxylate trifluoromethanesulfonate], the IC50 was ≥ 1000 nM.

With `CC(=O)C1=C(C)NC(C)=C(C(C)=O)C1c1csc2ccc(C#N)cc12` [Example H7, 3-(3,5-diacetyl-2,6-dimethyl-1,4-dihydropyridin-4-yl)benzo[b]thiophene-5-carbonitrile], the IC50 was ≥ 1000 nM.

Turning to `COC(=O)C1=C(C)NC(C)=C(C(C)=O)C1c1csc2ccccc12` (racemic) [Example A1, Methyl 5-acetyl-4-(benzo[b]thiophen-3-yl)-2,6-dimethyl-1,4-dihydro-pyridine-3-carboxylate], the IC50 is < 100 nM.

As to `CC(=O)C1=C(C)NC(C)=C(C(=O)OC2CCOCC2)C1c1csc2ccccc12` (stereo not shown) [Example C1, Tetrahydro-2H-pyran-4-yl 5-acetyl-4-(benzo[b]thiophen-3-yl)-2,6-dimethyl-1,4-dihydropyridine-3-carboxylate], the IC50 fell in the range of 100 to 1000 nM.

Turning to `CC(=O)C1=C(C)NC(C)=C(C(=O)OCC2CCCC2)C1c1csc2ccccc12` (stereo not shown) [Example C23, Cyclopentylmethyl 5-acetyl-4-(benzo[b]thiophen-3-yl)-2,6-dimethyl-1,4-dihydropyridine-3-carboxylate], the IC50 is < 100 nM.

On to `COC(=O)C1=C(C(F)(F)F)NC(C)=C(C(C)=O)C1c1csc2ccc(F)cc12` (stereo not shown) [Example C29, Methyl 5-acetyl-4-(5-fluorobenzo[b]thiophen-3-yl)-6-methyl-2-(trifluoromethyl)-1,4-dihydropyridine-3-carboxylate], for which the IC50 is < 100 nM.

With `COC(=O)C1=C(C)NC(C)=C(C(C)=O)C1c1csc2ccncc12` (stereo not shown) [Example J19, Methyl 5-acetyl-2,6-dimethyl-4-(thieno[3,2-c]pyridin-3-yl)-1,4-dihydropyridine-3-carboxylate], the IC50 is ≥ 1000 nM.

For the compound `COC(=O)C1=C(C)NC(C)=C(C(C)=O)C1c1csc2ncccc12` (stereo not shown) [Example J21, Methyl 5-acetyl-2,6-dimethyl-4-(thieno[2,3-b]pyridin-3-yl)-1,4-dihydropyridine-3-carboxylate], the IC50 was < 100 nM.

With `CC(=O)C1=C(C)NC(C)=C(C(C)=O)C1c1csc2cc(O)ccc12` [Example G2, 1,1′-(4-(6-hydroxybenzo[b]thiophen-3-yl)-2,6-dimethyl-1,4-dihydropyridine-3,5-diyl)bis(ethan-1-one)], the IC50 is ≥ 1000 nM.

For the compound `COC(=O)C1=C(C)NC(C)=C(C(C)=O)C1c1csc2ccc(C(=O)NCC3CC3)cc12` (stereo not shown) [Example J16, Methyl 5-acetyl-4-(5-((cyclopropylmethyl)carbamoyl)benzo[b]thiophen-3-yl)-2,6-dimethyl-1,4-dihydropyridine-3-carboxylate], the IC50 was ≥ 1000 nM.

On to `CC(=O)C1=C(C)NC(C)=C(C(C)=O)C1c1csc2ccc(N3CCOCC3)cc12` [Example H4, 1,1′-(2,6-dimethyl-4-(5-morpholinobenzo[b]thiophen-3-yl)-1,4-dihydropyridine-3,5-diyl)bis(ethan-1-one)], for which the IC50 was ≥ 1000 nM.

In the case of `COC(=O)C1=C(N)NC(C)=C(C(C)=O)C1c1csc2ccccc12` (stereo not shown) [Example K1, Methyl 5-acetyl-2-amino-4-(benzo[b]thiophen-3-yl)-6-methyl-1,4-dihydropyridine-3-carboxylate hydrochloride], the IC50 was in the range of 100 to 1000 nM.

Consider `COC(=O)C1=C(C)NC(C)=C(C(C)=O)C1c1csc2ccc(Cl)cc12` (stereo not shown) [Example J3, Methyl 5-acetyl-4-(5-chlorobenzo[b]thiophen-3-yl)-2,6-dimethyl-1,4-dihydropyridine-3-carboxylate], for which the IC50 was 100 to 1000 nM.

With `CC(=O)C1=C(C)NC(C)=C(C(=O)OCC(F)(F)F)C1c1csc2ccccc12` (stereo not shown) [Example A10, 2,2,2-trifluoroethyl 5-acetyl-4-(benzo[b]thiophen-3-yl)-2,6-dimethyl-1,4-dihydropyridine-3-carboxylate], the IC50 is < 100 nM.

Another test addresses T3, human androgen receptor (Homo sapiens, UniProt P10275, T878A).
T3 construct: endogenously expressed human androgen receptor using the LnCap prostate cancer cell line; endogenous in cells; host or cells: LNCaP prostate cancer cell line (whole cells)
T3 sequence (P10275 1-920 T878A): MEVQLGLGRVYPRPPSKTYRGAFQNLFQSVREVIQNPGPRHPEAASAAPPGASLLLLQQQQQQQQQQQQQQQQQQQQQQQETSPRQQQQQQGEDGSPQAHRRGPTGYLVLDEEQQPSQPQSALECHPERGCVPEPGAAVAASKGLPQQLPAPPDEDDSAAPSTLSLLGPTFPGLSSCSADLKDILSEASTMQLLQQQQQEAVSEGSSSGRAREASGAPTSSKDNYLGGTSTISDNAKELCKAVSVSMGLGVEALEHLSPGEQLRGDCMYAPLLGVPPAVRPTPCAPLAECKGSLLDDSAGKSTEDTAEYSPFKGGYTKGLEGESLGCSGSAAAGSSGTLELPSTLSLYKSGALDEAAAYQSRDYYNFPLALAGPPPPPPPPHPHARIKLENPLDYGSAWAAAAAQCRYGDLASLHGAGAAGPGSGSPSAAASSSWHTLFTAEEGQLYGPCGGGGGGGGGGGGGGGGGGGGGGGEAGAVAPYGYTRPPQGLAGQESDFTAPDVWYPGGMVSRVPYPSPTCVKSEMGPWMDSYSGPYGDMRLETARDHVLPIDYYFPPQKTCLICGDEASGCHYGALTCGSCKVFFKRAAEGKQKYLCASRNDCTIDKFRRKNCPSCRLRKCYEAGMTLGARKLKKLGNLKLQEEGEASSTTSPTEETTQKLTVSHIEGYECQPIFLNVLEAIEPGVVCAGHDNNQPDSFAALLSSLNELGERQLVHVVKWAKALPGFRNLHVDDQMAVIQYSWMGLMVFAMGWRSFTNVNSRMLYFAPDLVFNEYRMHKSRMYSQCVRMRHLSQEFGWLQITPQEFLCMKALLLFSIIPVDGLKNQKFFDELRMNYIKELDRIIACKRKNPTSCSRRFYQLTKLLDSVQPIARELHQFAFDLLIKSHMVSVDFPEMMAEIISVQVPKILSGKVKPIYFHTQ
Nature of the test: Human Androgen Receptor Binding (radioligand binding, LnCap prostate cancer cell line). Particulars: LnCap cells, displacement of [^3H]-methyltrienolone, 2 hours at 37° C.; read-out: AR LNCaP. In a few lines: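 Whole-cell displacement of [3H]-methyltrienolone from endogenous AR (T878A) in LnCap cells, in RPMI with 0.1% BSA and triamcinolone acetonide. Compounds 10 μM to 0.1 nM in 1:10 steps, 2 h at 37 °C; cells washed, SDS-lysed, bound radioactivity by scintillation counting for IC50.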
For the compound `CC1=C(C#N)C(c2csc3ccccc23)C(C#N)=C(C)N1` [Example E1, 4-(Benzo[b]thiophen-3-yl)-2,6-dimethyl-1,4-dihydropyridine-3,5-dicarbonitrile], the IC50 is < 100 nM.

As for `COC(=O)C1=C(C)NC(C)=C(C(C)=O)C1c1csc2ncccc12` (stereo not shown) [Example J21, Methyl 5-acetyl-2,6-dimethyl-4-(thieno[2,3-b]pyridin-3-yl)-1,4-dihydropyridine-3-carboxylate], the IC50 is < 100 nM.
